Results published in US20090105189A1, “METHODS AND COMPOSITIONS FOR AMELIORATING OR INHIBITING DECLINE IN MEMORY OR INTELLIGENCE OR IMPROVING SAME” (priority 2006, published 2009).

Tests used:
Sprague Dawley rats [1] = assay: Visible platform water maze task in EC and IC rats on UMP diet; assay type: in vivo, rat; conditions: UMP-supplemented diet
Text: Four starting positions (north, south, east, west) were spaced around the perimeter of the tank, dividing the pool into four equal quadrants. For the visible platform version of the water maze, a white rubber ball (8 cm in diameter) was attached to the top of the submerged platform and protruded above the water surface. The platform could be used as a step to mount the ball to escape the water. A video camera was mounted directly above the water maze; this camera was linked to a computer with video tracking software to automatically record the escape latency (time to reach the platform), distance traveled (length of swim path taken to find the platform), and swim speed (HVS Image Ltd; Buckingham, UK). One week after completion of the 4-day/4 trials per day spatial training task, the rats from the above Example received 4 training sessions consisting of 4 trials (i.e., swims) per day. On each trial the animal was placed into the tank facing the wall at one of four designated start points (N, S, E, and W) and allowed to escape onto the visibly cued platform. A different starting point was used on each trial such that each starting point was used each day. In addition, the visible escape platform was placed in a different quadrant on each trial such that each of the four quadrants contained the escape platform once each day. […]

gerbils [2] = assay: Food pellet learning assay (radial arm maze) in gerbils; assay type: in vivo, gerbil; conditions: young adult gerbils, 0.1, 0.5 or 2.5% UMP chow, three weeks
Experimental: Male young adult gerbils fed control or UMP-containing chow (0, 0.1, 0.5 or 2.5%) ad lib for three weeks were tested in a radial arm maze, consisting of a central chamber with four branches primed with a small food pellet at the end of each. Before testing, animals were fasted overnight; each animal was then placed in the central chamber and allowed up to 180 seconds to find all of the pellets. A shorter time required to find the pellets is indicative of improved learning and spatial memory.

[3] = Brain CDP-choline levels after oral UMP in gerbils; assay type: in vivo, gerbil; conditions: UMP 1 mmole/kg by gavage, for 30 min after administration
Experimental: (§1) Brain tissue or cells was dissolved in methanol/chloroform (1:2 vol/vol), centrifuged, and the aqueous phase was dried under vacuum, resuspended in 100-200 μL water and separated by HPLC on an ion-exchange column (Alltech Hypersil APS-2, 5 μM, 250×4.6 mm). CDP-choline was eluted with a linear gradient of NaH2PO4 buffers A (1.75 mM NaH2PO4, pH 2.9) and B (500 mM, pH 4.5), which allowed resolution of CDP-choline from closely co-eluting substances such as UMP over 40 min. The retention time for CDP-choline was 9.5 min. Individual nucleotide peaks were detected by UV absorption at […], and were identified by comparison with the positions of authentic standards, as well as by the addition of nucleotide standards to selected samples.

gerbils [4] = assay: Working memory and reference memory assay (modified radial arm maze) in gerbils; assay type: in vivo, gerbil; conditions: 0.1% UMP diet, four weeks
Text: Groups of ten gerbils fed control or 0.1% UMP diet for four weeks and trained to successfully find all of the food pellets as described above were then given a modified test, in which only two arms of the maze (but always the same two) contained food pellet rewards. In this test, a working memory error is one in which a gerbil revisits an arm from which it has already taken the pellet that day.

[5] = Body weight of rats on UMP-supplemented diet; assay type: in vivo, rat
Text: Animals were weighed weekly to ensure that UMP-treated and untreated rats were eating equivalent amounts of food. […] Also, there was no difference in body weight between the EC and IC groups.

Fischer 344 rats = assay: In vivo microdialysis of striatal neurotransmitter release in aged rats on UMP diet; design: species or system rat; conditions: for K+-evoked striatal DA release (basal = 100%): control 283±9%
Sprague Dawley rats [6] = assay: Hidden platform water maze and probe test in EC and IC rats on UMP diet; assay type: in vivo, rat; conditions: for Rate of acquisition of hidden platform water maze task: 0.1% UMP-2Na+ diet 3 months
Experimental: Behavioral training was carried out between 10:00 AM-2:00 PM, in a blinded manner. Rats received a 4-d training session consisting of 4 trials (i.e., swims) per day to locate the hidden platform (1.5 cm below the water surface), which remained in the same position across trials for individual animals (i.e. within one of 4 quadrants). On each trial the animal was placed into the tank facing the wall at one of 4 designated start points (N, S, E, and W) and allowed to escape onto the hidden platform. A different starting point was used on each trial such that each starting point was used once each day. […] After mounting the platform, rats remained on the platform for 20 seconds. Following each trial, animals were removed from the maze and placed in a holding cage for a 30 second inter-trial interval (ITI). The latency to mount the escape platform was used as a measure of task acquisition.
On day 5, the rats were given a probe test. For this, the platform was removed and the swim path and time spent searching in the quadrant of the pool that previously contained the platform were measured over 60 s. This provides a measurement for the retention of spatial memory and indicates whether a spatial strategy was used during hidden platform training.

Aging rats = assay: Morris water maze in aging rats on UMP diet; assay type: in vivo, rat; conditions: aging rats 18 months, 2.5% diet, six weeks
Text: Aging rats (I 8 months, 500 g) were fed a control diet or a diet containing 2.5% UMP diets for six weeks. They were then shown a hidden platform in a six-foot diameter pool of water, placed somewhere in each of the four quadrants of the pool in turn, and were allowed 90 seconds in each trial to attempt to relocate the platform by swimming, and the swimming time “mean escape latency” recorded. The set of four trials was repeated on each of four consecutive days. The platform was in the same place each day. This test, known as the Morris water maze, is an indicator of spatial memory.

[7] = Plasma uridine levels after oral UMP in healthy human subjects; assay type: in vivo; conditions: humans, oral UMP 500, 1000 or 2000 mg; baseline and 1, 2, 4, 8 hr
Experimental: 1-milliliter (mL) samples of heparinized plasma were spiked with 1 μg fluoro-uridine for use as an internal standard, then deproteinized by adding methanol (5 mL).
All steps were performed at 4° C. Boronate affinity columns (Affigel-601, Bio-Rad) were primed with two 5-mL ammonium acetate washes, samples were applied, and columns were washed again with ammonium acetate, after which the nucleosides were eluted with 0.1 N formic acid (7 mL). Eluates were lyophilized, then reconstituted in 100 μL water for HPLC analysis.
HPLC analysis was performed using a Beckman System Gold apparatus (Beckman Instruments) equipped with a Rainin Dynamax Microsorb C18 column (3 μm packing; 4.6×100 mm) at room temperature. The standard HPLC method is described in Lopez-Coviella et al, (J. Neurochem 65: 889-894, 1995). For modified HPLC, an isocratic elution buffer was used containing 0.004 N potassium phosphate buffer (pH 5.8) and 0.1% methanol instead of formic acid, flowing at 1 mL/min and heated to 35°.
Eight healthy subjects (5 male, 3 female, 27-67 years old) were instructed to fast overnight and given sequentially increasing doses (500, 1000, and 2000 mg) of disodium UMP (Numico, Wageningen, NL) at 7-8 AM on each of three days, separated by at least a three-day washout period. All subjects were given lunch. Blood samples were drawn over an eight-hour period into heparinized tubes. […]

PC12 cells [8] = assay: NGF-induced neurite outgrowth in PC12 cells; assay type: cell-based; conditions: for Number of neurites per cell: PC12, with NGF
Experimental: PC12 cells were maintained in Minimal Essential Medium (MEM; Invitrogen, Carlsbad, Calif.) supplemented with 10% fetal bovine serum (FBS) at 37° C. Experimental incubations were for 2 or 4 days in medium containing 50 ng/ml mouse 2.5 S (2.5 subunit) NGF and 1% FBS, with or without test compounds. NGF and FBS were obtained from Invitrogen.
PC12 cells were sparsely plated on collagen-coated 60 mm culture dishes in MEM containing 1% fetal bovine serum. […] All treatments were performed 24 h after plating. At the end of the treatment period, images were obtained with a phase-contrast Zeiss Axioplan 2 microscope, using OpenLab software. Six digital images were captured for each dish, for a total of 18 to 24 images per treatment group. Approximately 300 cells were quantified for each treatment group for each experiment. Experiments were performed in triplicate. Quantification of neurites, including neurite branching and neurite length, was performed by one more researchers blinded to experimental groups. Neurite length was measured using the public domain NIH software “Image J.” Processes longer than the diameter of the cell body were counted as neurites. Only process-bearing cells were analyzed.

[9] = test system: P2Y2, P2Y4 and P2Y6 receptors; assay: P2Y receptor expression in NGF-differentiated PC12 cells; assay type: cell-based; conditions: vs NGF alone
Experimental: Western blots utilized rabbit anti-P2Y2, anti-P2Y4 (both from Calbiochem); or rabbit anti-P2Y6 (Novus Biologicals, Littleton, Colo.). PC12 cells were treated as described above, except they were grown on 12 mm glass cover slips ([…] & Co., Vernon Hills, Ill.) coated with collagen. Proteins were visualized using immunofluorescence. […] For P2Y2 and P2Y4 visualization, control cultures were incubated with primary antibody plus a control antigen in order to ensure that the immuno-staining would be specific. Control antigen was not available for the P2Y6 receptor. Cells were then incubated in fluorochrome-conjugated secondary antibodies for 1 hour (goat anti-rabbit ALEXA 488 and goat anti-mouse ALEXA 568; Molecular Probes, Eugene, Oreg.) and mounted on glass slides with mounting media with or without DAPI (Vector Laboratories, Burlingame, Calif.). Control antigens provided with the primary antibodies were used to ensure that immuno-staining was specific. […] To determine whether these receptors participate in the mechanism by which extracellular UTP affects neurite outgrowth, it was first determined whether the receptors are expressed in PC 12 cells, and whether exposure to NGF alters their expression, PC 12 cells were treated for 0-7 days with NGF and levels of the receptors measured. […]

PC 12 cells = assay: Intracellular CDP-choline levels in PC12 cells treated with uridine; assay type: cell-based; conditions: uridine treatment, after 50 minutes
Experimental: as §1

PC12 cells [10] = assay: Intracellular UTP and CTP levels in PC12 cells by HPLC; assay type: cell-based; conditions: PC12, 2 days with NGF, 50 μM, vs NGF only
Experimental: as §1
Levels of intracellular UTP and CTP were analyzed by HPLC as described for Example 5, except that 5 mM NaH2PO4, pH 2.65 was used as buffer A.

[11] = test system: PLC/DAG/IP3 signaling pathway; assay: PI turnover (inositol phosphate formation) in NGF-differentiated PC12 cells; assay type: cell-based; conditions: NGF-differentiated PC12, 50 μM, 1 hour
Experimental: Analysis of PI turnover was performed as described by ([…] et al, J Neurochem 69: 704-12, 1997). Briefly, cells were labeled metabolically for 36 h with 1.25 microCurie (μCi)/dish of myo-[2-^3H]inositol (17-0 Curie/mmol; Amersham Biosciences) in serum-free MEM, washed twice with Hank's balanced salt solution (HBSS), and treated for 15 min with 10 mM lithium chloride in HBSS. Drugs were added in the presence of 10 mM lithium for 60 min at 37° C. Cells were lysed with ice-cold methanol, and lipids were removed by extraction with chloroform/methanol/water (2:2:1 by volume). Labeled water-soluble inositol phosphates were separated from free [^3H]inositol by ion-exchange chromatography, using AG 1-X8 columns (Bio-Rad), and 1M ammonium formate and 0.1M formic acid as eluent. Radioactivity was quantified by liquid scintillation spectrometry. P2Y2, P2Y4 and P2Y6 receptors activate the phospholipase C/diacylglycerol/inositol triphosphate (PLC/DAG/IP3) signaling pathway. […] These findings indicate that UTP promotes neurite outgrowth via P2Y receptors-mediated stimulation of the IP signaling pathway.

[12] = aged rats, UMP diet 1 week or 6 weeks vs control

O=c1ccn([C@@H]2O[C@H](COP(=O)([O-])[O-])[C@@H](O)[C@H]2O)c(=O)[nH]1.[Na+].[Na+] [UMP, uridine-5′-monophosphate disodium]
Striatal-based (stimulus-response) memory, visible platform water maze (Sprague Dawley rats [1]): little or no effect | Time required to find the food pellets, radial arm maze (gerbils [2]): reduced the time required for gerbils to find the pellet in a dose-dependent manner | Brain CDP-choline levels [3]: rose significantly in a linear fashion | Reference memory errors (gerbils [4]): reduced numbers | Working memory errors (gerbils [4]): reduced numbers | Mean body weights ([5]; Sprague Dawley EC/IC rats, 0.1% UMP-2Na+ diet, vs control groups): No significant differences in mean body weights | Body weight ([5]; aged Fischer 344 rats, 2.5% UMP-2Na+ diet, 0-6 weeks): neither UMP-diet (vs. control) nor UMP×time interaction affected body weight | Basal DA levels in striatal dialysate (Fischer 344 rats; aged rats, 2.5% UMP diet 1 or 6 weeks vs control): did not affect | K+-evoked striatal DA release (basal = 100%) (Fischer 344 rats; aged rats, 2.5% UMP diet 1 week, not significant): 316±15% | K+-evoked striatal DA release (basal = 100%) (Fischer 344 rats; aged rats, 2.5% UMP diet 6 weeks): 341±21% | Basal DOPAC levels in striatal dialysate (Fischer 344 rats; [12]): no effects | Basal HVA levels in striatal dialysate (Fischer 344 rats; [12]): no effects | Basal release of acetylcholine in corpus striatum (Fischer 344 rats; rats, dietary UMP): increase the basal release | Rate of acquisition of hidden platform water maze task (Sprague Dawley rats [6]; EC rats, vs EC-CONT (P<0.09)): acquired the task at a faster rate than EC-CONT rats | Rate of acquisition of hidden platform water maze task (Sprague Dawley rats [6]; IC rats, vs IC-CONT): acquired the task at a significantly faster rate than did IC-CONT rats | Time in the correct quadrant, 60 s probe test (Sprague Dawley rats [6]; IC rats, UMP diet, vs IC-CONT): spent significantly more time in the correct quadrant than IC-CONT rats | Time required to reach the platform (mean escape latency), Morris water maze (Aging rats): statistically significant reduction in the time required to reach the location of the platform | Plasma uridine levels [7]: increased in response to oral UMP in a dose-dependent fashion

O=c1ccn([C@@H]2O[C@H](CO)[C@@H](O)[C@H]2O)c(=O)[nH]1 [uridine]
Average neurite length (PC12 cells [8]; NGF-differentiated PC12 cells): did not significantly affect | Number of neurite branch points per cell (PC12 cells [8]; PC12, NGF, 50 μM, 4 days, vs NGF only): significantly (p<0.01) increased | Production of neurites (PC12 cells [8]; PC12, absence of NGF, 50 μM, 2 or 4 days): did not result in the production of neurites | Number of neurites per cell (PC12 cells [8]; 2-day treatment or lower concentrations (10, 25 μM)): had no effect | Number of neurites per cell (PC12 cells [8]; 50-200 μM, 4 days): significantly (p<0.01 or 0.001) enhanced | Expression of P2Y2, P2Y4 and P2Y6 receptors [9]: did not affect the expression of the receptors | Intracellular CDP-choline levels (PC 12 cells): statistically significant increase | Intracellular CTP levels (PC12 cells [10]): significantly (p<0.05) increased | Intracellular UTP levels (PC12 cells [10]): significantly (p<0.05) increased | Formation of IP (PI turnover) [11]: significantly increased
